Test results from patent EP3843702B1, “IMMEDIATE RELEASE FIXED-DOSE COMBINATION OF MEMANTINE AND DONEPEZIL” (Tecnimede, Sociedade Técnico-Medicinal, SA, priority 2019, dated 2020).

Conditions: in vivo

CC12CC3CC(C)(C1)CC(N)(C3)C2 [Memantine 20mg, 3,5-dimethyladamantan-1-amine]
AUC 0→72 Point Estimate [%]: 103.89%
Cmax Point Estimate [%]: 101.40%
